These results are taken from patent US7390870B2, “Immune-enhancing peptides” (Posco, priority 2001, dated 2008).

No end group written: not given here.

Assay [1] relates to NIH3T3 (NIH Swiss mouse embryo fibroblast). The assay is described as follows: [Ca2+]i rise in NIH3T3 cells (fura-2). The class given is cell-based. Conditions: FIG. 4A; 20 μM peptide. The procedure: (§1) The level of [Ca^2+]i was determined by Grynkiewicz's method using fura-2/AM (21). Briefly, prepared cells were incubated with 3 μM fura-2/AM at 37° C. for 50 minutes in a fresh serum-free RPMI 1640 medium under continuous stirring. 2×10^6 cells were aliquoted for each assay in Ca^2+-free Locke's solution (154 mM NaCl, 5.6 mM KCl1.2 mM MgCl2, 5 mM HEPES, pH 7.3, 10 mM glucose, and 0.2 mM EGTA). The fluorescence changes at the dual excitation wavelengths of 340 nm and 380 nm and the emission wavelength of 500 nm were measured, and the calibrated fluorescence ratio was translated into [Ca^2+]i.
(§2) From the fact that HFYLPM, MFYLPM, and HFYLPm stimulate human monocytes, effects of the peptides on other leukocytes such as neutrophils were evaluated. Prepared human primary monocytes, neutrophils, cultured HL60, Jurkat, U937, NIH3T3, 3Y1, 3T3L1, and PC12 cells were loaded with fura-2 and stimulated with effective concentrations of the three peptides (1 μM for monocyte and neutrophil; 10 μM for HL60 and Jurkat; 20 μM for U937, NIH3T3, 3Y1, 3T3L1, and PC12). The peak level of the [Ca^2+]i increase was recorded and superoxide generation was measured using cytochrome c reduction assay. The results are shown FIG. 4. The data of FIG. 4 are presented as means ±S.E. from at least three independent experiments.

For assay [2], the system named is differentiated HL60 cells. The assay can be described thus: Superoxide generation in differentiated HL60 cells. The class given is cell-based, human. Conditions: similar concentrations as for the [Ca2+]i increase. The procedure:
(§3) For initial screening of the PS-SPCLs, the superoxide anion generation of each peptide pool was evaluated by measuring reduction of cytochrome c using a microtiter 96 well plate ELISA reader (Bio-Tekinstruments, EL312e, Winooski, Vt.) as described (20). The cytochrome c was purchased from Sigma (St. Louis, Mo.). The human monocytes (9×10^5 cells/100 □ of RPMI 1640 medium per well of a 96-well plate) were preincubated with 50 μM cytochrome c at 37° C. for 1 minute and then incubated with the indicated concentrations of peptide pools (final 0.5 nM per peptide sequence for the initial screening). The superoxide generation was measured as change in light absorption at 550 nm over 5 minutes at 1 minute intervals. From at least four independent experiments, peptides with active amino acids at each position were chosen. Superoxide generation by the identified peptides was measured by the same method. Spurious reduction of cytochrome c was ruled out by checking that the peptides-induced ones were superoxide dismutase-inhibitable in all experiments.
A test where the three peptides on HL60 cells that had differentiated into granulocytes after having been cultured in the presence of 1.25% DMSO for 4 days was performed. HL60 cells were cultured in RPMI medium containing 20% FCS. […] The peak level of the [Ca^2+]i increase was recorded. […]

Assay [3] has as its system 3Y1 (Rat embryonic fibroblast). The assay is described as follows: [Ca2+]i rise in 3Y1 cells (fura-2). The settings on record: FIG. 4A; 20 μM peptide. The format is cell-based. As for the experimental part: as §1, §2
The test system of assay [4] is Jurkat human T cell leukemia cells. The assay can be described thus: [Ca2+]i increase in Jurkat cells (fura-2). The class given is cell-based. Conditions: FIG. 4A; MFYLPM up to 30 μM. The procedure: as §1, §2
The subject of assay [5] is human monocytes. The assay is described as follows: Checkboard analysis of monocyte migration across polycarbonate membrane. The class given is cell-based. The settings on record: 2 hr. As for the experimental part: Chemotaxis assays of the peptide were performed using multiwell chambers (Neuroprobe Inc., Gaithersburg, Md.) (20). Briefly, the prepared isolated human monocytes were suspended in RPMI at a concentration of 1×10^6 cells/ml of serum-free RPMI, and 25 □ of the suspension were placed onto the upper well of a 96-well chemotaxis chamber that was separated by a […] filter with a 5 □ pore size (3 □ diameter pores not coated with polyvinylpyrrolidone for neutrophils) from peptides or an fMLF-containing lower well. After incubation for 2 hours (90 minutes for neutrophils) at 37° C., non-migrated cells were removed by scraping them out, and cells that migrated across the filter were dehydrated, fixed, and stained with hematoxylin (Sigma, St. Louis, Mo.). The stained cells in five randomly chosen high power fields (HPF) (400×) in that well were then counted (21). The numbers of migrated cells were determined by counting them in a high power field (400×). For a checkboard analysis, cells were re-suspended in RPMI containing various concentrations of the peptide just before transferring them to the upper wells as described before (22).
To distinguish whether the peptide-induced monocyte migration is chemotaxis or chemokinesis, a checkboard analysis was performed as described above (22, 26).

The subject of assay [6] is human neutrophils. The assay can be described thus: Superoxide generation by human neutrophils (cytochrome c reduction assay). The settings on record: FIG. 4B; 10 μM of each peptide. The format is cell-based. As for the experimental part:
as §3
From the fact that HFYLPM, MFYLPM, and HFYLPm stimulate human monocytes, effects of the peptides on other leukocytes such as neutrophils were evaluated. […] The peak level of the [Ca^2+]i increase was recorded and superoxide generation was measured using cytochrome c reduction assay. […]

As for “Met-Phe-Tyr-Leu-Pro-Met-CONH2 (MFYLPM-NH2)”, in assay [1], the “[Ca2+]i rise in NIH3T3 cells” value is “no response”. Also, in assay [2], the “superoxide generation in differentiated HL60 cells” value was “resulted in superoxide generation”. For the same substance, in assay [3], the “[Ca2+]i rise in 3Y1 cells” value is listed as “no response”. Further, in assay [4], the “intracellular calcium mobilization in Jurkat cells” value was “did not cause a similar intracellular calcium mobilization”. Also, the “migrated monocytes in 5 HPF” value in assay [5] (peptide below 0 nM, above 10 nM) was 11.3 ± 2.42; in assay [5] (peptide below 0 nM, above 100 nM), 15.0 ± 3.50; in assay [5] (peptide below 0 nM, above 1000 nM), 11.0 ± 2.67; in assay [5] (peptide below 10 nM, above 0 nM), 198 ± 32.3; in assay [5] (peptide below 10 nM, above 10 nM), 33.7 ± 8.93; in assay [5] (peptide below 10 nM, above 100 nM), 16.0 ± 3.16. Moreover, the “migrated monocytes in 5 HPF” value was determined as 12.3 ± 3.43 in assay [5] (peptide below 10 nM, above 1000 nM); 557 ± 29.5 in assay [5] (peptide below 100 nM, above 0 nM); 425 ± 48.3 in assay [5] (peptide below 100 nM, above 10 nM); 66.3 ± 14.9 in assay [5] (peptide below 100 nM, above 100 nM); 18.0 ± 4.05 in assay [5] (peptide below 100 nM, above 1000 nM); 484 ± 43.6 in assay [5] (peptide below 1000 nM, above 0 nM). The “migrated monocytes in 5 HPF” value is listed as 395 ± 38.5 in assay [5] (peptide below 1000 nM, above 10 nM); 198 ± 26.7 in assay [5] (peptide below 1000 nM, above 100 nM); 76.7 ± 18.9 in assay [5] (peptide below 1000 nM, above 1000 nM). In addition, the “superoxide generation by neutrophils” value in assay [6] is recorded as “generate superoxides”.
